Measured values as given in patent publication US20210274823A1, “NOVEL TRITERPENE-GLYCOSIDES AS SWEETENERS OR SWEETENER ENHANCER” (priority 2017, published 2021).

Assay: Organoleptic test of the compounds of formula (I) against sucrose
Parameters: key to sweetness compared to sucrose: 3: sweeter than the control solution; 2: sweetness comparable with the control solution; 1: less sweet than the control solution but still sweet
Details: panel of 3-4 panelists; for sweetness compared to sucrose: test compound dissolved in water (Evian) at 400 ppm, control sucrose 20 g/l; for Comment (taste impression): test compound dissolved in water at 400 ppm
Experimental: The isolated pure compounds were dissolved in non-carbonated mineral water (“Evian”) in a concentration of 0.4 mg/ml (400 ppm). The sweet taste of each sample was compared by a panel of 3-4 panelists with a solution of sucrose in a concentration of 20 g/l.

SMILES	sweetness compared to sucrose	Comment (taste impression)
CC(CO)C(=O)CC[C@](C)(O[C@@H]1O[C@H](CO)[C@@H](O)[C@H](O)[C@H]1O)[C@H]1CC[C@]2(C)[C@@H]1[C@H](O)CC1[C@@]3(C)C[C@@H](O)[C@H](O[C@@H]4O[C@H](CO)[C@@H](O)[C@H](O)[C@H]4O[C@@H]4O[C@H](CO)[C@@H](O)[C@H](O)[C@H]4O)C(C)(C)C3CC[C@]12C (stereo partly drawn) [Compound K]	3	–
CC(C)=CCC[C@](C)(O[C@@H]1O[C@H](CO)[C@@H](O)[C@H](O)[C@H]1O)[C@H]1CC[C@]2(C)[C@@H]1[C@H](O)CC1[C@@]3(C)C[C@@H](O)[C@H](O[C@@H]4O[C@H](COC5OCC(O)C(O)C5O)[C@@H](O)[C@H](O)[C@H]4O[C@@H]4O[C@H](CO)[C@@H](O)[C@H](O)[C@H]4O)C(C)(C)C3CC[C@]12C (stereo partly drawn) [Compound H]	3	Slightly bitter
CC(C)(/C=C/C[C@@](C)(O[C@@H]1O[C@H](CO)[C@@H](O)[C@H](O)[C@H]1O)[C@H]1CC[C@]2(C)[C@@H]1[C@H](O)C[C@@H]1[C@@]3(C)C[C@@H](O)[C@H](O[C@@H]4O[C@H](CO)[C@@H](O)[C@H](O)[C@H]4O[C@@H]4O[C@H](CO)[C@@H](O)[C@H](O)[C@H]4O)C(C)(C)[C@@H]3CC[C@]12C)OO (stereo in doubt) [Compound E]	3	–
CC(C)(O)/C=C/C[C@](C)(O[C@@H]1O[C@H](CO)[C@@H](O)[C@H](O)[C@H]1O)[C@H]1CC[C@]2(C)C1[C@H](O)CC1[C@@]3(C)C[C@@H](O)[C@H](O[C@@H]4O[C@H](CO)[C@@H](O)[C@H](O)[C@H]4O[C@@H]4O[C@H](CO)[C@@H](O)[C@H](O)[C@H]4O)C(C)(C)C3CC[C@]12C (stereo partly drawn) [Compound D]	3	–
C=C(C)C(O)CC[C@](C)(O[C@@H]1O[C@H](CO[C@@H]2OC[C@@H](O)[C@H](O)[C@H]2O)[C@@H](O)[C@H](O)[C@H]1O)[C@H]1CC[C@]2(C)[C@@H]1[C@H](O)CC1[C@@]3(C)C[C@@H](O)[C@H](O[C@@H]4O[C@H](CO)[C@@H](O)[C@H](O)[C@H]4O[C@@H]4O[C@H](CO)[C@@H](O)[C@H](O)[C@H]4O)C(C)(C)C3CC[C@]12C (stereo partly drawn) [Compound I]	2	–
CC(CO)C(=O)CC[C@](C)(O[C@@H]1O[C@H](CO)[C@@H](O)[C@H](O)[C@H]1O)[C@H]1CC[C@]2(C)[C@@H]1[C@H](O)CC1[C@@]3(C)C[C@@H](O)[C@H](O[C@@H]4O[C@H](CO)[C@@H](O)[C@H](O)[C@H]4O[C@@H]4O[C@H](CO)[C@@H](O)[C@H](O)[C@H]4O)C(C)(C)C3CC[C@]12C (stereo partly drawn) [Compound L]	2	–
CC1(C)C2CC[C@]3(C)C(C[C@@H](O)[C@@H]4[C@@H]([C@](C)(CCCO)O[C@@H]5O[C@H](CO)[C@@H](O)[C@H](O)[C@H]5O)CC[C@]43C)[C@@]2(C)C[C@@H](O)[C@@H]1O[C@@H]1O[C@H](CO)[C@@H](O)[C@H](O)[C@H]1O[C@@H]1O[C@H](CO)[C@@H](O)[C@H](O)[C@H]1O (stereo partly drawn) [Compound J]	2	–
CC(C)=CCC[C@](C)(O[C@@H]1O[C@H](CO[C@@H]2OC[C@@H](O)[C@H](O)[C@H]2O)[C@@H](O)[C@H](O)[C@H]1O)[C@H]1CC[C@]2(C)[C@@H]1[C@H](O)CC1[C@@]3(C)C[C@@H](O)[C@H](O[C@@H]4O[C@H](CO)[C@@H](O)[C@H](O)[C@H]4O[C@@H]4O[C@H](CO)[C@@H](O)[C@H](O)[C@H]4O)C(C)(C)C3CC[C@]12C (stereo partly drawn) [Compound A]	2	Slightly hot
CC(C)(/C=C/C[C@](C)(O[C@@H]1O[C@H](CO[C@@H]2OC[C@@H](O)[C@H](O)[C@H]2O)[C@@H](O)[C@H](O)[C@H]1O)[C@H]1CC[C@]2(C)C1[C@H](O)CC1[C@@]3(C)C[C@@H](O)[C@H](O[C@@H]4O[C@H](CO)[C@@H](O)[C@H](O)[C@H]4O[C@@H]4O[C@H](CO)[C@@H](O)[C@H](O)[C@H]4O)C(C)(C)C3CC[C@]12C)OO (stereo partly drawn) [Compound G]	2	Slightly bitter
C=C(C)C(CC[C@](C)(O[C@@H]1O[C@H](CO[C@@H]2OC[C@@H](O)[C@H](O)[C@H]2O)[C@@H](O)[C@H](O)[C@H]1O)[C@H]1CC[C@]2(C)[C@@H]1[C@H](O)CC1[C@@]3(C)C[C@@H](O)[C@H](O[C@@H]4O[C@H](CO)[C@@H](O)[C@H](O)[C@H]4O[C@@H]4O[C@H](CO)[C@@H](O)[C@H](O)[C@H]4O)C(C)(C)C3CC[C@]12C)OO (stereo partly drawn) [Compound C]	2	–
CC(C)=CCC[C@](C)(O[C@@H]1O[C@H](CO)[C@@H](O)[C@H](O)[C@H]1O)[C@H]1CC[C@]2(C)[C@@H]1[C@H](O)CC1[C@@]3(C)C[C@@H](O)[C@H](O[C@@H]4O[C@H](CO)[C@@H](O)[C@H](O)[C@H]4O[C@@H]4O[C@H](CO)[C@@H](O)[C@H](O)[C@H]4O)C(C)(C)C3CC[C@]12C (stereo partly drawn) [Compound B]	3	Slightly bitter
